Data from ChEMBL document CHEMBL1667837, “Structure and property based design, synthesis and biological evaluation of γ-lactam based HDAC inhibitors” (Bioorg Med Chem Lett, 2011).
Blank lines part the entries; values can stand above or below the compound they belong to.

Legend:
[1] = Inhibition of HDAC by fluorescence assay
[2] = Inhibition of HDAC assessed as increase of histone H4 acetylation
[3] = Inhibition of HDAC assessed as increase of histone H3 acetylation
ACHN = assay: Cytotoxicity against human ACHN cells; assay type: functional
[4] = Metabolic stability in ICR mouse liver microsomes assessed as compound remaining at 1 uM after 60 mins in presence of NADPH; assay type: ADME, Microsome; conditions: read-out: Stability
HCT-15 = assay: Cytotoxicity against human HCT15 cells; assay type: functional
PC-3 = assay: Cytotoxicity against human PC3 cells; assay type: functional
MDA-MB-231 = assay: Cytotoxicity against human MDA-MB-231 cells; assay type: functional
[5] = Metabolic stability in ICR mouse liver microsomes assessed as compound remaining at 1 uM after 60 mins in absence of NADPH; assay type: ADME, Microsome; conditions: read-out: Stability
NCI-H23 = assay: Cytotoxicity against human NCI-H23 cells; assay type: functional
LOX IMVI = assay: Cytotoxicity against human LOXIMVI cells; assay type: functional
NUGC-3 = assay: Cytotoxicity against human NUGC3 cells; assay type: functional
[6] = Apparent permeability across human Caco2 cells; assay type: ADME, cell-based; conditions: Caco-2
[7] = Metabolic stability in ICR mouse liver microsomes assessed as compound remaining at 1 uM after 60 mins in presence of buffer; assay type: ADME, Microsome; conditions: read-out: Stability
[8] = Cmax in BALB/c mouse at 20 mg/kg, po; assay type: ADME, organism-based; parameters: dose 20 mg/kg, route oral; conditions: in vivo
[9] = Volume of distribution at steady state in BALB/c mouse at 5 mg/kg, iv; assay type: ADME, organism-based; parameters: dose 5 mg/kg, route intravenous; conditions: in vivo, read-out: Vdss
[10] = Half life in BALB/c mouse at 5 mg/kg, iv; assay type: ADME, organism-based; parameters: dose 5 mg/kg, route intravenous; conditions: in vivo
[11] = AUC (0 to infinity) in BALB/c mouse at 5 mg/kg, iv; assay type: ADME, organism-based; parameters: time infinity, dose 5 mg/kg, route intravenous; conditions: plasma
Histone deacetylase 1 = Histone deacetylase 1 (Homo sapiens, UniProt Q13547); assay: Inhibition of HDAC1 by fluorescence assay
Chain of Histone deacetylase 1 (Q13547 whole entry): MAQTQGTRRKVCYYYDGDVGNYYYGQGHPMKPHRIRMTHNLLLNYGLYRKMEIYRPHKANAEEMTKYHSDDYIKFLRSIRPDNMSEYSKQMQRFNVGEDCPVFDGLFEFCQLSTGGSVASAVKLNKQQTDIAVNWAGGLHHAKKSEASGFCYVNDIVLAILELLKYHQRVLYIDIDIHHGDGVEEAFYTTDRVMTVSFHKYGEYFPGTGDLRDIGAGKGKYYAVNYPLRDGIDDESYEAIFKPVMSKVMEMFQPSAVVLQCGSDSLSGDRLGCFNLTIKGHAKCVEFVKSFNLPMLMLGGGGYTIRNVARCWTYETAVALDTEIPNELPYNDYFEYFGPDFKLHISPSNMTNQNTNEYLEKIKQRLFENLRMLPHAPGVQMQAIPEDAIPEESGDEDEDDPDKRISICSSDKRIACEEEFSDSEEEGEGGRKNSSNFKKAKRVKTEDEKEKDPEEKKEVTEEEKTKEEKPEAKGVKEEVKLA

Histone deacetylase 2 = Histone deacetylase 2 (Homo sapiens, UniProt Q92769); assay: Inhibition of HDAC2 by fluorescence assay
Chain of Histone deacetylase 2 (Q92769 whole entry): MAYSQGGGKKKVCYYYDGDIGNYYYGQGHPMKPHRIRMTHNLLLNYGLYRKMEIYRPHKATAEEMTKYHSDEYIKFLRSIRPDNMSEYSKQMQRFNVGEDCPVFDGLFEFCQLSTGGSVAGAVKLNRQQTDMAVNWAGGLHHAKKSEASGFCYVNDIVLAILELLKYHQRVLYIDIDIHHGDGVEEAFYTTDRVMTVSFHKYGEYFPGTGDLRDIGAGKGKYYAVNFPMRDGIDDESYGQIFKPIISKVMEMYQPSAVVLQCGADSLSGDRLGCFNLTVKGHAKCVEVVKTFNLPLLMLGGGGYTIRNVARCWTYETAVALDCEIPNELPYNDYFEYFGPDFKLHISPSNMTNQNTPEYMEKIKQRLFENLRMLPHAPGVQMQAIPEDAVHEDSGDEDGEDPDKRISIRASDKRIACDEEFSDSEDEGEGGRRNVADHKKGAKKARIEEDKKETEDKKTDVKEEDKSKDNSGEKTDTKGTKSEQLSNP

[12] = Clearance in BALB/c mouse at 5 mg/kg, iv; assay type: ADME, organism-based; parameters: dose 5 mg/kg, route intravenous; conditions: in vivo
Histone deacetylase 8 = molecular target: T1, Histone deacetylase 8 (Homo sapiens, UniProt Q9BY41); assay: Inhibition of HDAC8 by fluorescence assay
T1 sequence (Q9BY41 whole entry): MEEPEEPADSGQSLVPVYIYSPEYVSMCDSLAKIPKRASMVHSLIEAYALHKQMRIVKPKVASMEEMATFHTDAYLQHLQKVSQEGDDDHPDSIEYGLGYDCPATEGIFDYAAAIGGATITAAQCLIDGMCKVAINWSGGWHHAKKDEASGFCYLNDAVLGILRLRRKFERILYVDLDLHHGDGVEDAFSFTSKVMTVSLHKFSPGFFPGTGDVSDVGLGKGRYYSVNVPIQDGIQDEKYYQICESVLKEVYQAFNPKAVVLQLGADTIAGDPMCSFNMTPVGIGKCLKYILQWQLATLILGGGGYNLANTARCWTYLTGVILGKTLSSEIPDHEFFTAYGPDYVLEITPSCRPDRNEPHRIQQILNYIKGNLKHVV

[13] = Half life in BALB/c mouse at 20 mg/kg, po; assay type: ADME, organism-based; parameters: dose 20 mg/kg, route oral; conditions: in vivo
[14] = Oral bioavailability in BALB/c mouse at 20 mg/kg; assay type: ADME, organism-based; conditions: in vivo
HCT-116 [15] = assay: Antitumor activity against human HCT116 cells xenografted in nude mouse assessed as reduction of tumor volume at 30 mg/kg, ip for 20 days (reference value: 369.8 mm'3); assay type: functional; conditions: route intraperitoneal
Mus musculus = assay: Toxicity in human HCT116 cells xenografted nude mouse assessed as change in body weight at 30 mg/kg, ip for 20 days; assay type: organism-based, HCT-116; parameters: dose 30 mg/kg, route intraperitoneal; conditions: in vivo, 480 h
HCT-116 [16] = assay: Antitumor activity against human HCT116 cells xenografted in nude mouse assessed as inhibition of tumor growth at 30 mg/kg, ip for 20 days relative to control; assay type: functional; parameters: scale not given: the % may be the effect or the level left; conditions: route intraperitoneal
Histone deacetylase 3 = Histone deacetylase 3 (Homo sapiens, UniProt O15379)
Chain of Histone deacetylase 3 (O15379 whole entry): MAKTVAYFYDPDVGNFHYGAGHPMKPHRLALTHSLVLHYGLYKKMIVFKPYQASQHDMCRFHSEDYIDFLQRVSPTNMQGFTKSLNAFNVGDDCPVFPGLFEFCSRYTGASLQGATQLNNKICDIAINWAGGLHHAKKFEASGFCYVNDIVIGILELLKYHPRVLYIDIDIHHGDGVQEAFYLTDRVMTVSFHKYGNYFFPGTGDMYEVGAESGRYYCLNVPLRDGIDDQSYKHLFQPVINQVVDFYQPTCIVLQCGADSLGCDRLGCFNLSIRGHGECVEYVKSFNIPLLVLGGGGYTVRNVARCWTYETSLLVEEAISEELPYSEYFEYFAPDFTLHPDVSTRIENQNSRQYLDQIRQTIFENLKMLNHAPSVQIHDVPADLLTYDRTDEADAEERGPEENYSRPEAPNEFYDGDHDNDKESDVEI

[17] = Tmax in BALB/c mouse at 20 mg/kg, po; assay type: ADME, organism-based; parameters: dose 20 mg/kg, route oral; conditions: in vivo
[18] = AUC (0 to 5 hrs) in BALB/c mouse at 20 mg/kg, po; assay type: ADME, organism-based; parameters: time < 4 hr, dose 20 mg/kg, route oral; conditions: plasma
[19] = molecular target: T2, Protein deacetylase HDAC6 (Homo sapiens, UniProt Q9UBN7)
T2 sequence (Q9UBN7 whole entry): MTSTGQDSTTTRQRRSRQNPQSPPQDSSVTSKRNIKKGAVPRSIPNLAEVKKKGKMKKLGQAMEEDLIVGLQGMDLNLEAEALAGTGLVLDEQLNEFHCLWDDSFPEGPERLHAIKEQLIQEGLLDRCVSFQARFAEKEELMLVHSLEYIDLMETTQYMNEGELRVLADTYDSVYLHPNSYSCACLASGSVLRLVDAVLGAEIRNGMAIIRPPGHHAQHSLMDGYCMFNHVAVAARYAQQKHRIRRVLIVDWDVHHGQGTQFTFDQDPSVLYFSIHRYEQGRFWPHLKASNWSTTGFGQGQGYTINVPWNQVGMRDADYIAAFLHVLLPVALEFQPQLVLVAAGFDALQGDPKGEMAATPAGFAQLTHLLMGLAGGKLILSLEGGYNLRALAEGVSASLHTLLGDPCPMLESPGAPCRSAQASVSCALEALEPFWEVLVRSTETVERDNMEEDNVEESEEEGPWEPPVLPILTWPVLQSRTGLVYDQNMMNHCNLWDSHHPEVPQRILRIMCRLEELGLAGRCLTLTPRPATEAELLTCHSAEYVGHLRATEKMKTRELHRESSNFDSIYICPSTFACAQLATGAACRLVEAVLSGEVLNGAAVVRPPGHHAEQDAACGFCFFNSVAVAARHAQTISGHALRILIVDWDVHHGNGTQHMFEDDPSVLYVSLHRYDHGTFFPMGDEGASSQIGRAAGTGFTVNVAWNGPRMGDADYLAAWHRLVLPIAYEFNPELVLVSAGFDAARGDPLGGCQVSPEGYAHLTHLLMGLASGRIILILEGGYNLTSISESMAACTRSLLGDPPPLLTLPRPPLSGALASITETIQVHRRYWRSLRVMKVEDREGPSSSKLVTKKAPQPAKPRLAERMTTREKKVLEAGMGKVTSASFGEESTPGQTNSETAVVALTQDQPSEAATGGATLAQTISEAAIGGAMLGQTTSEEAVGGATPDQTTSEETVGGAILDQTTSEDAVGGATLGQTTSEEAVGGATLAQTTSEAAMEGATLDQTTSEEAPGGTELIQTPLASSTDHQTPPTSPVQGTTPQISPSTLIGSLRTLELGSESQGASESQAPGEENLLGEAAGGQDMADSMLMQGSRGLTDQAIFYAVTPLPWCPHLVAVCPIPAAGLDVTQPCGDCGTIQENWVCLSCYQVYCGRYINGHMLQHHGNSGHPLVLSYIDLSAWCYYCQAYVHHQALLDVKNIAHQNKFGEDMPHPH

SMILES: O=C(CCC1=CCCN(CCc2cccc3ccccc23)C1=O)NO
IC50 [1]: 320 nM

SMILES: CC(/C=C/C(=O)NO)=C\[C@@H](C)C(=O)c1ccc(N(C)C)cc1
inhibition [2]: Dose-dependent effect
inhibition [3]: Dose-dependent effect

SMILES: O=C(CCC1=CCN(CCc2cccc3ccccc23)C1=O)NO
IC50 [1]: 360 nM
GI50 (ACHN): 6.41 µM
remaining at 1 h, 1 µM [4]: 3.9%
GI50 (HCT-15): 6.78 µM
GI50 (PC-3): 5.76 µM
GI50 (MDA-MB-231): 4760 nM
remaining at 1 h, 1 µM [5]: 15.1%
GI50 (NCI-H23): 5.13 µM
GI50 (LOX IMVI): 3.71 µM
GI50 (NUGC-3): 5230 nM

SMILES: O=C(CCC1=CCCN(Cc2ccccc2)C1=O)NO
IC50 [1]: 670 nM
GI50 (ACHN): 30 µM
GI50 (HCT-15): 30 µM
GI50 (PC-3): 30 µM
GI50 (MDA-MB-231): 4260 nM
GI50 (NCI-H23): 30 µM
GI50 (LOX IMVI): 30 µM

SMILES: O=C(CCC1=CCCN(Cc2ccc3ccccc3c2)C1=O)NO
IC50 [1]: 30000 nM
GI50 (ACHN): 6.09 µM
GI50 (HCT-15): 6.82 µM
GI50 (PC-3): 30 µM
GI50 (MDA-MB-231): 4070 nM
GI50 (NCI-H23): 30 µM
GI50 (LOX IMVI): 30 µM

SMILES: O=C(CCC1=CCN(Cc2ccccc2)C1=O)NO
IC50 [1]: 800 nM
GI50 (ACHN): 30 µM
GI50 (HCT-15): 30 µM
GI50 (PC-3): 30 µM
GI50 (MDA-MB-231): 4730 nM
GI50 (NCI-H23): 30 µM
GI50 (LOX IMVI): 30 µM

SMILES: O=C(CCC1=CCCN(CCc2ccccc2)C1=O)NO
IC50 [1]: 350 nM
GI50 (ACHN): 7.76 µM
GI50 (HCT-15): 8.16 µM
GI50 (PC-3): 9.84 µM
GI50 (MDA-MB-231): 1620 nM
GI50 (NCI-H23): 30 µM
GI50 (LOX IMVI): 5.84 µM

Continued by falling IC50 [1], values first:

IC50 [1]: 270 nM
Papp [6]: 17.5 ×10⁻⁶ cm/s
SMILES: O=C(CCC1=CCCN(CCCc2ccccc2)C1=O)NO
GI50 (PC-3): 6.98 µM

IC50 [1]: 150 nM
SMILES: O=C(CCC1=CCN(Cc2ccc3ccccc3c2)C1=O)NO
GI50 (ACHN): 1.39 µM
GI50 (HCT-15): 3.54 µM
GI50 (PC-3): 4.88 µM
GI50 (MDA-MB-231): 1220 nM
GI50 (NCI-H23): 5.19 µM
GI50 (LOX IMVI): 7.98 µM

IC50 [1]: 140 nM
SMILES: O=C(CCC1=CCCN(CCCc2ccc3ccccc3c2)C1=O)NO
GI50 (ACHN): 5.78 µM
GI50 (PC-3): 3.77 µM
GI50 (MDA-MB-231): 4700 nM

IC50 [1]: 120 nM
SMILES: O=C(CCC1=CCN(CCc2ccccc2)C1=O)NO
GI50 (ACHN): 1.08 µM
GI50 (HCT-15): 5.37 µM
GI50 (PC-3): 4.43 µM
GI50 (MDA-MB-231): 990 nM
GI50 (NCI-H23): 4.29 µM
GI50 (LOX IMVI): 30 µM

IC50 [1]: 50 nM
remaining at 1 h, 1 µM [4]: 66.6%
remaining at 1 h, 1 µM [5]: 66.3%
Papp [6]: 9.5 ×10⁻⁶ cm/s
SMILES: O=C(CCC1=CCN(CCCc2ccccc2)C1=O)NO
GI50 (ACHN): 4.24 µM
GI50 (HCT-15): 6.23 µM
GI50 (PC-3): 3.91 µM
GI50 (MDA-MB-231): 3810 nM
GI50 (NCI-H23): 3.46 µM
GI50 (LOX IMVI): 4.52 µM
GI50 (NUGC-3): 2600 nM

IC50 [1]: 50 nM
remaining at 1 h, 1 µM [4]: 29.7%
remaining at 1 h, 1 µM [5]: 46.6%
SMILES: O=C(CCC1=CCN(CCc2ccc3ccccc3c2)C1=O)NO
GI50 (ACHN): 0.63 µM
GI50 (HCT-15): 0.84 µM
GI50 (PC-3): 0.34 µM
GI50 (MDA-MB-231): 590 nM
GI50 (NCI-H23): 0.5 µM
GI50 (LOX IMVI): 0.61 µM
GI50 (NUGC-3): 800 nM

IC50 [1]: 40 nM
remaining at 1 h, 1 µM [4]: 10.3%
remaining at 1 h, 1 µM [7]: 99.1%
remaining at 1 h, 1 µM [5]: 31%
Papp [6]: 19.1 ×10⁻⁶ cm/s
SMILES: O=C(CCC1=CCCN(CCc2ccc3ccccc3c2)C1=O)NO
GI50 (ACHN): 0.61 µM
GI50 (HCT-15): 0.79 µM
GI50 (PC-3): 0.56 µM
GI50 (MDA-MB-231): 450 nM
GI50 (NCI-H23): 0.54 µM
GI50 (LOX IMVI): 0.56 µM
GI50 (NUGC-3): 420 nM

IC50 [1]: 10 nM
Cmax [8]: 813 ng/mL
remaining at 1 h, 1 µM [4]: 43.1%
Vd [9]: 0.85 L/kg
half-life [10]: 9 min
AUC(0-inf) [11]: 890 ng·h/mL
remaining at 1 h, 1 µM [7]: 97.2%
IC50 (Histone deacetylase 1): 25.6 µM
remaining at 1 h, 1 µM [5]: 71.1%
IC50 (Histone deacetylase 2): 16.4 µM
clearance [12]: 93.7 mL/min/kg
IC50 (Histone deacetylase 8): 120 µM
Papp [6]: 16.3 ×10⁻⁶ cm/s
half-life [13]: 38.4 min
bioavailability [14]: 8.7%
inhibition [2]: Dose-dependent effect
IC50 (Histone deacetylase 3): 80.1 µM
Tmax [17]: 15 min
AUC(0-t) at 4 h [18]: 309 ng·h/mL
inhibition [3]: Dose-dependent effect
IC50 [19]: 800 nM
SMILES: O=C(CCC1=CCN(CCCc2ccc3ccccc3c2)C1=O)NO
GI50 (ACHN): 0.65 µM
GI50 (HCT-15): 0.78 µM
GI50 (PC-3): 1.09 µM
GI50 (MDA-MB-231): 650 nM
GI50 (NCI-H23): 0.61 µM
GI50 (LOX IMVI): 0.82 µM
Activity (HCT-116 [15]): 242.2 mm3
GI50 (NUGC-3): 610 nM
Activity (Mus musculus): Non-toxic
Activity (HCT-116 [16]): 34.4%
